Measurements taken from patent publication US7109193B2, “Tricyclic diazepines tocolytic oxytocin receptor antagonists” (Wyeth, priority 2001, dated 2006).

Target: T1, human vasopressin V1a receptor subtype (Homo sapiens, UniProt P37288)
T1 construct: host or cells: CHO cells (pZeoSV vector for the Thibonnier line)
Test: Vasopressin binding in Chinese Hamster Ovary cell membranes expressing human vasopressin V1a subtype receptors
Settings: 100 nM, CHO cell membranes, [3H]Manning ligand, values without parentheses
Experimental: Vasopressin Binding in Chinese Hamster Ovary Cell Membranes Expressing Human Vasopressin V1a Subtype Receptors
The trypsin is removed by aspiration and the cells dislodged by tapping. Cell Culture medium (e.g. 30 mL for 1:30 split) is immediately added and mixed well to inactivate trypsin. 1 mL of detached cells is added to new culture flasks containing fresh cell culture medium (e.g., into 25 mL per T-150 flask), and mixed gently. The cells are incubated at 37° C. in 5% CO2. The medium is changed at 3 to 4 days interval (or as appropriate). […] All steps are done under sterile conditions. B. Membrane Preparation: The cells are washed twice gently with Hank's Balanced Salt solution (e.g,. use 10 mL per T-150 flask). […] The contents are transferred to centrifuge tubes (50 mL) kept in an ice bath. All subsequent steps are done at 4° C. The tubes are centrifuged at 300×g for 15 min (1380 rpm on SORVAL, Model RT6000D, using the rotor for 50 mL tubes). The supernatant is discarded and the cells suspended in homogenizing buffer(10 mM Tris-HCl containing 0.25 M sucrose and 1 mM EDTA, pH 7.4) ensuring that the volume of the buffer is about ten times the volume of the cell pellet. The cells are pooled into a centrifuge tube (50 mL) and homogenized with a Polytron at setting 6 for 10 sec. The homogenate is transferred into a Potter-Elvjehm homogenizer and homogenized with 3 strokes. The homogenate is centrifuged at 1500×g for 10 min at 4° C. (3100 rpm using SORVAL, model RT6000D, using the rotor for 50 mL tubes). The pellet is discarded. The supernatant is centrifuged at 100,000×g for 60 min. at 4° C. (Beckman L8-80M ultracentrifuge; spin at 37,500 rpm with rotor type 70 Ti for 50 mL tubes; 38,000 rpm with type 80Ti for 15 mL tubes; or 35,800 rpm with rotor type 45Ti). The supernantant is discarded and the pellet suspended in 3 to 4 mL of Tris buffer (50 mM TRIS-HCl, pH 7.4). The protein content is estimated by the Bradford or Lowry method. The volume of the membrane suspension is adjusted with the membrane buffer (50 mM Tris-HCl containing 0.1% BSA and 0.1 mM PMSF) to give 3.0 mg/mL (or as appropriate) of protein. The membranes are aliquoted and stored at −70° C. C. Radioligand Binding Assay: In wells of a 96-well format microtiter plate, is added 90, 110 or 130 μL (to make up a final volume of 200 μL) of assay buffer containing 50 mM of Tris-HCl (pH 7.4), BSA (heat inactivated, protease-free), […], 1 mg % aprotinin, 1 mg % leupeptin, 2 mg % 1,10-phenanthroline, 10 mg % trypsin inhibitor, and 0.1 mM PMSF. The inhibitors are added on the day of the experiment. The components are mixed at room temperature, and then kept in ice bath following adjustment of the pH to 7.4. […] 20 μL of 50% DMSO is added for Manning and other peptide ligands and the assay buffer volume is adjusted accordingly. To each well is added 50 μL of frozen membrane suspension thawed immediately prior to use and diluted in the assay buffer to the required concentration (equivalent to 25 to 50 μg of protein/well as needed). 20 μL of 8 nM [^3H]Manning ligand in the assay buffer, prepared just before use, is added, and incubated at room temperature for 60 min. shaking the plate on a mechanical shaker for the first 15 min. The incubation is stopped by rapid filtration of the plate contents followed by wash with ice-cold buffer (50 mM Tris-HCl, pH 7.4) using a cell harvester (Tomtek and Printed filtermat-B filter paper). The filter paper is thoroughly dried (7–12 min. in a microwave oven) and impregnated with MeltiLex B/H melt-on scintillation wax sheets and the radioactivity counted in a betaplate scintillation counter.
Binding data is either reported as percent inhibition at a certain concentration or if an IC50 was calculated, as a nanomolar concentration.

T1 sequence (P37288 whole entry): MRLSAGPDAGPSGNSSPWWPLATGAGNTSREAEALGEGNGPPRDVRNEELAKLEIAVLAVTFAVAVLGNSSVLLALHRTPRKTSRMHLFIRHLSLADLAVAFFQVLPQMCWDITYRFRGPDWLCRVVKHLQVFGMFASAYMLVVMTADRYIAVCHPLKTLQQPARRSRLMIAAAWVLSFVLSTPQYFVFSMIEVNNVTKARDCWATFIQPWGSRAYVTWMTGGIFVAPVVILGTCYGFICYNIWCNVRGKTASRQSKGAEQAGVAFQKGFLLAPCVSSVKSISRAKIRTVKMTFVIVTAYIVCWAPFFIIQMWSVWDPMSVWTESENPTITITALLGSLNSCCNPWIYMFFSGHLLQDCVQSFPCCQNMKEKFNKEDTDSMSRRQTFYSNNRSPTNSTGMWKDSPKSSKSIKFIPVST

| SMILES | inhibition at 0.1 µM [%] | V1a % inhibition @ 100 nM [%] |
| --- | --- | --- |
| Cc1ccccc1-c1ccc(C(=O)N2Cc3ccc(C(=O)N4CCC(N5CCCC5)CC4)n3Cc3ccccc32)cc1 [Example 141, {10-[(2′-Methyl[1,1′-biphenyl]-4-yl)carbonyl]-10,11-dihydro-5H-pyrrolo[2,1-c][1,4]benzodiazepin-3-yl}[4-(1-pyrrolidinyl)-1-piperidinyl]methanone] | -3 |  |
| COc1ccccc1-c1ccc(C(=O)N2Cc3ccc(C(=O)N4CCC(N5CCCCC5)CC4)n3Cc3ccccc32)cc1C [Example 112, {10-[(2-Methyl-2′-methoxy[1,1′-biphenyl]-4-yl)carbonyl]-10,11-dihydro-5H-pyrrolo[2,1-c][1,4]benzodiazepin-3-yl}[4-(1-piperidinyl)-1-piperidinyl]methanone] | 8 |  |
| COc1cc(C(=O)N2Cc3ccc(C(=O)N4CCC[C@H]4CN4CCCC4)n3Cc3ccccc32)ccc1-n1c(C)ccc1C [Example 321, {10-[4-(2,5-Dimethyl-1H-pyrrol-1-yl)-3-methoxybenzoyl]-10,11-dihydro-5H-pyrrolo[2,1-c][1,4]benzodiazepin-3-yl}[(2S)-2-(1-pyrrolidinylmethyl)pyrrolidinyl]methanone] |  | 5 |
| COc1cccc(-c2ccc(C(=O)N3Cc4ccc(C(=O)N5CCC(N6CCCCC6)CC5)n4Cc4ccccc43)cc2OC)c1 [Example 120, {10-[(2,3′-Dimethoxy-[1,1′-biphenyl]-4-yl)carbonyl]-10,11-dihydro-5H-pyrrolo[2,1-c][1,4]benzodiazepin-3-yl}[4-(1-piperidinyl)-1-piperidinyl]methanone] | 20 |  |
| COc1cccc(-c2ccc(C(=O)N3Cc4ccc(C(=O)N5CCC[C@H]5CN5CCCC5)n4Cc4ccccc43)cc2OC)c1 [Example 270, {10-[(2,3′-Dimethoxy[1,1′-biphenyl]-4-yl)carbonyl]-10,11-dihydro-5H-pyrrolo[2,1-c][1,4]benzodiazepin-3-yl}[(2S)-2-(1-pyrrolidinylmethyl)pyrrolidinyl]methanone] |  | 40 |
| COc1cc(C(=O)N2Cc3ccc(C(=O)N(C)CCCN(C)C)n3Cc3ccccc32)ccc1-n1c(C)ccc1C [Example 310, N-[3-(Dimethylamino)propyl]-10-[4-(2,5-dimethyl-i H-pyrrol-1-yl)-3-methoxybenzoyl]-N-methyl-10,11-dihydro-5H-pyrrolo[2,1-c][1,4]benzodiazepine-3-carboxamide] |  | 4 |
| Cc1ccccc1-c1ccc(C(=O)N2Cc3ccc(C(=O)N4CC[C@@H](N(C)C)C4)n3Cc3ccccc32)cc1C [Example 274, [(3R)-3-(Dimethylamino)pyrrolidinyl]{10-[(2,2′-dimethyl[1,1′-biphenyl]-4-yl)carbonyl]-10,11-dihydro-5H-pyrrolo[2,1-c][1,4]benzodiazepin-3-yl}methanone] |  | 90 |
| COc1cc(C(=O)N2Cc3ccc(C(=O)N4CCC[C@H]4CN4CCCC4)n3Cc3ccccc32)ccc1-c1ccccc1C [Example 266, {10-[(2-Methoxy-2′-methyl[1,1′-biphenyl]-4-yl)carbonyl]-10,11-dihydro-5H-pyrrolo[2,1-c][1,4]benzodiazepin-3-yl}[(2S)-2-(1-pyrrolidinylmethyl)pyrrolidinyl]methanone] |  | 49 |
| COc1cccc(-c2cc(OC)c(C(=O)N3Cc4ccc(C(=O)N5CCC(N6CCCCC6)CC5)n4Cc4ccccc43)cc2Cl)c1 [Example 117, {10-[(6-Chloro-3-methoxy-3′-methoxy[1,1′-biphenyl]-4-yl)carbonyl]-10,11-dihydro-5H-pyrrolo[2,1-c][1,4]benzodiazepin-3-yl}[4-(1-piperidinyl)-1-piperidinyl]methanone] | -3 |  |
| COc1ccccc1-c1ccc(C(=O)N2Cc3ccc(C(=O)N4CCC[C@H]4CN4CCCC4)n3Cc3ccccc32)cc1 [Example 265, {10-[(2′-Methoxy[1,1′-biphenyl]-4-yl)carbonyl]-10,11-dihydro-5H-pyrrolo[2,1-c][1,4]benzodiazepin-3-yl}[(2S)-2-(1-pyrrolidinylmethyl)pyrrolidinyl]methanone] |  | 31 |
| O=C(c1ccc2n1Cc1ccccc1N(C(=O)c1ccc(-c3cccc4ccccc34)cc1Cl)C2)N1CCC(N2CCCCC2)CC1 [Example 121] |  | 0 |
| COc1cc(-c2ccccc2C)c(Cl)cc1C(=O)N1Cc2ccc(C(=O)NCCCn3ccnc3)n2Cc2ccccc21 [Example 129, 10-[(6-Chloro-3-methoxy-2′-methyl[1,1′-biphenyl]-4-yl)carbonyl]-N-[3-(1H-imidazol-1-yl)propyl]-10,11-dihydro-5H-pyrrolo[2,1-c][1,4]benzodiazepine-3-carboxamide] | 6 |  |
| COc1cc(C(=O)N2Cc3ccc(C(=O)N4CC[C@@H](N(C)C)C4)n3Cc3ccccc32)ccc1-c1cccc2ccccc12 [Example 276, [(3R)-3-(Dimethylamino)pyrrolidinyl]{10-[3-methoxy-4-(1-naphthyl)benzoyl]-10,11-dihydro-5H-pyrrolo[2,1-c][1,4]benzodiazepin-3-yl}methanone] |  | 4 |

Further lines, with some results ahead:

| inhibition at 0.1 µM [%] | SMILES | V1a % inhibition @ 100 nM [%] |
| --- | --- | --- |
| 0 | COc1cc(-c2ccccc2C)c(Cl)cc1C(=O)N1Cc2ccc(C(=O)NCCN3CCCCC3)n2Cc2ccccc21 [Example 155, 10-[(6-Chloro-3-methoxy-2′-methyl[1,1′-biphenyl]-4-yl)carbonyl]-N-[2-(1-piperidinyl)ethyl]-10,11-dihydro-5H-pyrrolo[2,1-c][1,4]benzodiazepine-3-carboxamide] |  |
| 42 | Cc1ccccc1-c1ccc(C(=O)N2Cc3ccc(C(=O)NCCN4CCCCC4)n3Cc3ccccc32)cc1C [Example 150, 10-[(2,2′-Dimethyl[1,1′-biphenyl]-4-yl)carbonyl]-N-[2-(1-piperidinyl)ethyl]-10,11-dihydro-5H-pyrrolo[2,1-c][1,4]benzodiazepine-3-carboxamide] |  |
| 20 | COc1cccc(-c2ccc(C(=O)N3Cc4ccc(C(=O)NCCCn5ccnc5)n4Cc4ccccc43)cc2OC)c1 [Example 133, 10-[(2,3′-Dimethoxy[1,1′-biphenyl]4-yl)carbonyl]-N-[3-(1H-imidazol-1-yl)propyl]-10,11-dihydro-5H-pyrrolo[2,1-c][1,4]benzodiazepine-3-carboxamide] |  |
| 17 | COc1ccccc1-c1ccc(C(=O)N2Cc3ccc(C(=O)NCCN4CCCCC4)n3Cc3ccccc32)cc1C [Example 149, 10-[(2′-Methoxy-2-methyl[1,1′-biphenyl]-4-yl)carbonyl]-N-[2-(1-piperidinyl)ethyl]-10,11-dihydro-5H-pyrrolo[2,1-c][1,4]benzodiazepine-3-carboxamide] |  |
| 17 | COc1cccc(-c2ccc(C(=O)N3Cc4ccc(C(=O)NCCN5CCCCC5)n4Cc4ccccc43)cc2C)c1 [Example 151, 10-[(3′-Methoxy-2-methyl[1,1′-biphenyl]-4-yl)carbonyl]-N-[2-(1-piperidinyl)ethyl]-10,11-dihydro-5H-pyrrolo[2,1-c][1,4]benzodiazepine-3-carboxamide] |  |
| 39 | COc1cc(C(=O)N2Cc3ccc(C(=O)NCCN4CCCCC4)n3Cc3ccccc32)ccc1-c1ccccc1C [Example 154, 10-[(2-Methoxy-2′-methyl[1,1′-biphenyl]4-yl)carbonyl]-N-[2-(1-piperidinyl)ethyl]-10,11-dihydro-5H-pyrrolo[2,1-c][1,4]benzodiazepine-3-carboxamide] |  |
